# Literature values in patent US20040137049A1, “Amphotericin b aqueous composition” (priority 2001, published 2004).
# Conditions: in methanol
structure (smiles),measurement,value
C[C@@H]1[C@H](O)[C@@H](C)/C=C/C=C/C=C/C=C/C=C/C=C/C=C/[C@H](O[C@@H]2O[C@H](C)[C@@H](O)[C@H](N)[C@@H]2O)C[C@@H]2O[C@](O)(C[C@@H](O)C[C@@H](O)[C@H](O)CC[C@@H](O)C[C@@H](O)CC(=O)O[C@H]1C)C[C@H](O)[C@H]2C(=O)O [Amphotericin B],Solubility,100 µg/mL
